These are literature values, as cited in patent US20070071815A1 (priority 2004, published 2007).

As for `CN(CC(=O)O)C(=N)N` [creatine, N-(aminoiminomethyl)-N-methylglycine], the “half-life of creatine in blood plasma” value was 1 to 1.5 h.
